Source: patent US20180237362A1, “NOVEL POLYGODIAL ANALOGS FOR THE TREATMENT OF CANCER AND OTHER PROLIFERATIVE DISEASES” (THE BOARD OF REGENTS OF THE UNIVERSITY OF TAXAS SYSTEM, priority 2015, published 2018)

Tests used:
U373 cells = experiment: Trypan blue viability assay, U373; assay type: cell-based, human; conditions: 72 h treatment
Procedure: FIG. 9. Viability of U373 cells by trypan blue staining. U373 cells were treated for 72 h with 1 or 13 and stained with trypan blue. The experiment was conducted once in triplicate. After having taken pictures, cells were fixed with ice-cold methanol and again stained with trypan blue as internal positive control.
To confirm the results obtained in the videomicroscopy experiments, trypan blue assay was employed to detect necrotic and late apoptotic cells that had lost their plasma membrane integrity (FIG. 9). […] These observations support the results of the MTT assay and provide an explanation for the effectiveness of the C12-Wittig derivatives against cells, which display resistance to apoptosis induction. In contrast, at the concentrations necessary to induce cancer cell death 1 behaves as a toxic fixative compound of little promise as a potential drug.

[1] = system: MDR uterine sarcoma cell line MES-SA/Dx5; experiment: MTT antiproliferative assay, MDR MES-SA/Dx5; assay type: cell-based, human
Procedure: Human mammary carcinoma MCF-7 (ATCC HTB22) cells were cultured in RPMI supplemented with 10% FBS. The U87 cells (ATCC HTB-14) were cultured in DMEM culture medium, while the A549 cells (DSMZ ACC107) were cultured in RPMI culture medium supplemented with 10% heat-inactivated FBS. The GBM Hs683 (ATCC HTB-138) cells were cultivated in DMEM supplemented with 10% FBS. The human uterine sarcoma MES-SA (ATCC CRL1966) and MES-SA/D×5 cells were cultured in RPMI-1640 medium supplemented with 10% FBS with MES SA/D×5 maintained in the presence of 500 nM Doxorubicin (Sigma). SKMEL-28 cells (ATCC HTB72) and U373 GBM cells (ECACC 08061901) were cultured in RPMI culture medium supplemented with 10% heat-inactivated FBS. Cell culture media were supplemented with 4 mM glutamine (Lonza code BE17-605E), 100 μg/mL gentamicin (Lonza code 17-5182), and penicillin-streptomycin (200 units/ml and 200 μg/ml) (Lonza code 17-602E). The MDA-MB-231 (ATCC HTB-26) epithelial mammary adenocarcinoma cells were cultured in Eagle's minimum essential medium (EMEM; Invitrogen) containing 5% fetal calf serum (FCS, Cambrex), 2 mM L-glutamine (Invitrogen), 0.06% HEPES (Invitrogen) and penicillin (50 IU/ml)/streptomycin (50 µg/ml; Invitrogen) at 37° C. in a humidified atmosphere of 5% CO2 in air. Transformed mouse NPCs were cultured in suspension under neurosphere conditions at 37° C. in a humidified atmosphere of […] and 5% CO2 in DMEM F12 (Invitrogen 11320-074) supplemented with 1×B27 supplement (Invitrogen 17504-044), 5% penicillin-streptomycin (Biochrom 10378-017), 10 ng/ml EGF (R&D systems 236-EG), 10 ng/ml FGF (PeproTech 100-18B).
Antiproliferative properties of the synthesized compounds were evaluated by the MTT assay. All compounds were dissolved in DMSO at a concentration of either 100 μM or 50 μM prior to cell treatment. The cells were trypsinized and seeded at various cell concentrations depending on the cell type. The cells were grown for 24 h to 72 h, treated with compounds at concentrations ranging from 0.001 to 100 μM and incubated for 48 or 72 h in 100 or 200 μL media depending on the cell line used. The number of experiments and replicates varied depending on the cell line. Cells treated with 0.1% DMSO were used as a negative control; 1 μM PAO was used as a positive control.
Selection of the MES-SA/D×5 cell line was done according to Harker et al. (Harker & Sikic, 1985). The cells were split and allowed to adhere overnight. The next day cells were initially exposed to doxorubicin (DOX) at the concentration of 100 nM, which represented the GI50 concentration. The cells were maintained at this DOX concentration until their growth rate reached that of the untreated cells. The DOX concentration was then increased in two-fold increments following the same growth criteria at each concentration to a final DOX concentration of 500 nM. Each new DOX concentration required approximately 2 passages to reach the growth rate of the untreated cells.
Often, tumors initially respond to chemotherapy but eventually become refractory to the continuing treatment. Such acquired resistance commonly occurs through the development of a multi-drug resistant phenotype (MDR) (Gottesman et al., 2002 and Saraswathy & Gong, 2013) affecting many common chemotherapeutic agents, including the vinca alkaloids (Chen et al., 2000) and taxanes (Geney et al., 2002). In addition, the development of apoptosis resistance and MDR mechanisms is often related and concurrent (Ruefli et al., 2002 and Johnstone et al., 1999), and thus it was of interest to evaluate 5 against MDR cells. Towards this end, the MDR uterine sarcoma cell line MES-SA/D×5, established by growing the parent uterine sarcoma MES-SA in the presence of increasing concentrations of doxorubicin and resistant to multiple functionally and structurally unrelated molecules (Harker & Sikic, 1985), was utilized.

[2] = system: transgenic mouse glioma cells (neurosphere cultures); experiment: CytoTox-Fluor cytotoxicity assay, neurosphere glioma cultures; assay type: cell-based; conditions: cdkn2a deletion with PDGFB or EGFRvIII; 24 h; 5 at 20 μM, CBD at 10 μM
Procedure: FIGS. 5A-D. Activity of 5 against neurosphere glioma cell cultures with clinically relevant mutations. Transgenic mouse glioma cells of defined molecular subtypes were generated by forced expression of EGFRvIII (classical GBM subtype), PDGFB (proneural GBM subtype) in cdkn2a-deficient and cdkn2a/TRPV1-doubly deficient subventricular neural precursors (NPC). These primary cell cultures were treated for 24 hours either with 10 μM CBD versus a corresponding vehicle-control (containing 0.01% DMSO) or 20 μM of 5 versus vehicle control (0.02% DMSO). Cytotoxicity was measured 24 h after incubation and base-line cytotoxicity levels in the controls were arbitrarily defined as 1. Read-outs from treated cells were normalized to their respective vehicle controls and -fold change of relative cytotoxicity was calculated. Each bar represents the mean±SD from two independent experiments; statistical significance, as determined by unpaired t-tests, is indicated: *** represents p<0.001; ** p<0.005; * p=0.0257; ns not significant).
Human mammary carcinoma MCF-7 (ATCC HTB22) cells were cultured in RPMI supplemented with 10% FBS. […]
The CytoTox-Fluor cytotoxicity assay from Promega has been used according to manufacturer's instructions. […] After 2 hours of incubation at 37° C., the fluorescence intensity was measured using the Tecan InfiniteF200 fluorescence plate reader (485 nm Ex/520 nm Em). […]

Structure (SMILES) | viability by trypan blue staining (U373 cells) | change of potency against MES-SA/Dx5 MDR cell line as compared with parent MES-SA cells ([1]; 48 h MTT) | GI50 ([1]; 48 h treatment, MTT assay, relative to DMSO control, read-out: GI50 in vitro values, MES-SA/Dx5) [µM] | cytotoxicity against GBM neurosphere cultures [2]
CC1(C)CCC[C@]2(C)[C@@H](C=O)C(C=O)=CC[C@@H]12 [Compound 1, Polygodial] | all blue-stained before methanol fixation | – | – | –
COC(=O)/C=C/C1=CC[C@H]2C(C)(C)CCC[C@]2(C)[C@H]1C=O [Compound 5] | – | little variation in the sensitivities of the two cell lines | 45 | effectiveness similar to that of cannabidiol (CBD)
